Assay results as given in patent US3975366A, “Process for the production of new pepstatins having anti-pepsin activity” (Zaidan Hojin Biseibutsu Kagaku Kenkyu Kai, priority 1971, dated 1976).
≈ marks a conversion by molar mass, not a printed value. Where “and” joins values, the source holds several entries; their conditions need not be identical. Equal entries are not always repeated. Structures can show the parent of a compound that is named as a salt. Blank lines part the entries; values can stand above or below the molecule they belong to.

What was measured:
[1] = target: pepsin (Sus scrofa, UniProt P00791); experiment: anti-pepsin activity (50% inhibition of pepsin, ID50); type: biochemical; set-up: ID50 (50% inhibition against pepsin): unit not given beside the values; conditions: for ID50 (50% inhibition against pepsin): amount giving 50% inhibition of pepsin
[2] = physchem; conditions: methanol, organic solvent or mixture

Sequence of pepsin (P00791 60-385): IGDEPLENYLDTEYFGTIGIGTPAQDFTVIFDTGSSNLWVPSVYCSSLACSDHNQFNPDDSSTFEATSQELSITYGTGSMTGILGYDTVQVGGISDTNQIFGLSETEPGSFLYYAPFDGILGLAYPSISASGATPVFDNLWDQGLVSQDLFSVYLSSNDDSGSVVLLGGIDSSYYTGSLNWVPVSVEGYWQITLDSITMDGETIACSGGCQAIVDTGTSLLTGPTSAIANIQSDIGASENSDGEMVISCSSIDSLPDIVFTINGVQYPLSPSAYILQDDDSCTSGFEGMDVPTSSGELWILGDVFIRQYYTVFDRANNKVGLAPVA

- ID50 (50% inhibition against pepsin) [1]: 0.073 γ
SMILES: CCCCCC(=O)N[C@H](C(=O)N[C@H](C(=O)NC(CC(C)C)C(O)CC(=O)N[C@@H](C)C(=O)NC(CC(C)C)C(O)CC(=O)OCCC)C(C)C)C(C)C (stereo partly drawn) [pepstatin B n-propylester]

- ID50 (50% inhibition against pepsin) [1]: 0.084 γ
SMILES: CCCCCC(=O)N[C@H](C(=O)N[C@H](C(=O)NC(CC(C)C)C(O)CC(=O)N[C@@H](C)C(=O)NC(CC(C)C)C(O)CC(=O)OCCCC)C(C)C)C(C)C (stereo partly drawn) [new pepstatin B n-butyl ester]

Further lines, the molecule ahead of its results:

SMILES: CC(=NNc1ccc([N+](=O)[O-])cc1[N+](=O)[O-])C(CC(C)C)NC(=O)C(C)NC(=O)CC(O)C(CC(C)C)NC(=O)C(NC(=O)C(NC(=O)CC(C)C)C(C)C)C(C)C (stereo not drawn)
- pepsin-inhibitory activity as % of the activity of pepstatin (pepstatin A) ([1]; relative to pepstatin A): 37%

SMILES: CCCCCC(=O)N[C@H](C(=O)N[C@H](C(=O)NC(CC(C)C)C(O)CC(=O)N[C@@H](C)C(=O)NC(CC(C)C)C(O)CC(=O)OC)C(C)C)C(C)C (stereo partly drawn) [methyl ester of pepstatin B]
- anti-pepsin activity compared with pepstatin methyl ester ([1]; comparison in words): the same as that of pepstatin methyl ester
- Id50 ([1]; unit not given, third crystals of Example 3): 0.05
- solubility [2]: 5 to 10 mg/mL (≈ 7 to 14 mM)

SMILES: CCCCCC(=O)N[C@H](C(=O)N[C@H](C(=O)NC(CC(C)C)C(O)CC(=O)N[C@@H](C)C(=O)NC(CC(C)C)C(O)CC(=O)OCC)C(C)C)C(C)C (stereo partly drawn) [pepstatin B ethyl ester]
- ID50 (50% inhibition against pepsin) [1]: 0.054 γ

SMILES: CCCCCC(=O)N[C@H](C(=O)N[C@H](C(=O)NC(CC(C)C)C(O)CC(=O)N[C@@H](C)C(=O)NC(CC(C)C)C(O)CC(=O)O)C(C)C)C(C)C (stereo partly drawn) [sodium salt of pepstatin B]
- ID50 (50% inhibition against pepsin) [1]: 0.055 γ and 0.05 γ

SMILES: CCCCCC(=O)N[C@H](C(=O)N[C@H](C(=O)N[C@@H](CC(C)C)[C@@H](O)CC(=O)N[C@@H](C)C(=O)N[C@@H](CC(C)C)[C@@H](O)CC(=O)O)C(C)C)C(C)C [pepstatin B]
- solubility [2]: 100 mg/mL (≈ 143 mM)
